Measurements reported in patent US20110082182A1, “THERAPEUTIC ANTIVIRAL PEPTIDES” (INTERMUNE, INC., priority 2009, published 2011).

Columns and labels:
[1] = target: T1, NS3/NS4A-2 (full-length HCV NS3 protease) (Hepatitis C virus genotype 1a, UniProt P27958); assay: NS3 Inhibition Assay (NS3-NS4 protease assay, RETS1 substrate, fluorescence kinetic read); type: biochemical; settings: NS3/NS4A-2 protease
T1 construct: Recombinant E. coli or Baculovirus full-length NS3 was diluted to 3.33 μM with assay buffer; made in house; host or cells: E. coli or baculovirus (BV) expression
Method: NS3 Complex Formation with NS4A-2.
Recombinant E. coli or Baculovirus full-length NS3 was diluted to 3.33 μM with assay buffer and the material was transferred to an eppendorf tube and placed in a water bath in a 4° C. refrigerator. The appropriate amount of NS4A-2 diluted to 8.3 mM in assay buffer was added to an equal the volume of NS3 above (conversion factor—3.8 mg/272 μL assay buffer). The material was transferred to an eppendorf tube and placed in water bath in a 4° C. refrigerator.
After equilibration to 4° C., equal volumes of NS3 and NS4A-2 solutions were combined in an eppendorf tube, mixed gently with a manual pipettor, and incubated for 15 minutes in the 4° C. water bath. Final concentrations in the mixture are 1.67 μM NS3, 4.15 mM NS4A-2 (2485-fold molar excess NS4A-2).
After 15 minutes at 4° C., the NS3/NS4A-2 eppendorf tube was removed and placed in a room temperature water bath for 10 minutes. NS3/NS4A-2 was aliquoted at appropriate volumes and stored at −80° C. (E. coli NS3 run at 2 nM in assay, aliquot at 25 μL. BV NS3 run at 3 nM in assay, aliquot at 30 μL).
Step a. Sample compounds were dissolved to 10 mM in DMSO then diluted to 2.5 mM (1:4) in DMSO. Typically, compounds were added to an assay plate at 2.5 mM concentration, yielding upon dilution a starting concentration of 50 μM in the assay inhibition curve. Compounds were serial diluted in assay buffer to provide test solutions at lower concentrations.
Step 1. The E. coli. NS3/NS4A-2 was diluted to 4 nM NS3 (1:417.5 of 1.67 μM stock−18 μL 1.67 μM stock+7497 μL assay buffer). […]
The plate was read in kinetic mode on the Molecular Devices SpectraMax Gemini XS plate reader. Reader settings: Read time: 30 minutes, Interval: 36 seconds, Reads: 51, Excitation λ: 335 nm, Emission λ: 495 nm, cutoff: 475 nm, Automix: off, Calibrate: once, PMT: high, Reads/well: 6, Vmax pts: 21 or 28/51 depending on length of linearity of reaction
IC50s are determined using a four parameter curve fit equation, and converted to Ki's using the following Km's: […]

[2] = tested on: HCV sub-genomic replicon (I377/NS3-3') in HuH-7 hepatoma cells (GS4.3); assay: Quantitation by ELISA of NPTII in the HCV sub-genomic replicon, GS4.3; type: cell-based; settings: Hepatitis C virus, GS4.3 replicon cells, 72 h
Excerpt: Quantitation by ELISA of the Selectable Marker Protein, Neomycin Phosphotransferase II (NPTII) in the HCV Sub-Genomic Replicon, GS4.3
The HCV sub-genomic replicon (I377/NS3-3′, accession No. AJ242652), stably maintained in HuH-7 hepatoma cells, was created by Lohmann et al. Science 285: 110-113 (1999). The replicon-containing cell culture, designated GS4.3, was obtained from Dr. Christoph Seeger of the Institute for Cancer Research, Fox Chase Cancer Center, Philadelphia, Pa.
GS4.3 cells were maintained at 37° C., 5%CO2, in DMEM (Gibco 11965-092) supplemented with L-glutamine 200 mM (100×) (Gibco25030-081), non-essential amino acids (NEAA) (Biowhittaker 13-114E), heat-inactivated (HI) Fetal Bovine Serum (FBS) (Hyclone SH3007.03) and 750 μg/mL geneticin (G418) (Gibco 10131-035). Cells were sub-divided 1:3 or 4 every 2-3 days.
24 h prior to the assay, GS4.3 cells were collected, counted, and plated in 96-well plates (Costar 3585) at 7500 cells/well in 100 μL standard maintenance medium (above) and incubated in the conditions above. To initiate the assay, culture medium was removed, cells were washed once with PBS (Gibco 10010-023) and 90 μl Assay Medium (DMEM, L-glutamine, NEAA, 10% HI FBS, no G418) was added. Inhibitors were made as a 10× stock in Assay Medium, (3-fold dilutions from 10 μM to 56 pM final concentration, final DMSO concentration 1%), 10 μL were added to duplicate wells, plates were rocked to mix, and incubated as above for 72 h.
An NPTII Elisa kit was obtained from AGDIA, Inc. (Compound direct ELISA test system for Neomycin Phosphotransferase II, PSP 73000/4800). Manufacturer's instructions were followed, with some modifications. 10× PEB-1 lysis buffer was made up to include 500 μM PMSF (Sigma P7626, 50 mM stock in isopropanol). […] Plates were read at 450 nm on a Molecular Devices Versamax plate reader.
Inhibitor effect was expressed as a percentage of DMSO-treated control signal, and inhibition curves were calculated using a 4-parameter equation: y=A+4B−A)/(1+((C/x)̂C))), where C is half-maximal activity or EC50.

T1 sequence (P27958 1027-1657): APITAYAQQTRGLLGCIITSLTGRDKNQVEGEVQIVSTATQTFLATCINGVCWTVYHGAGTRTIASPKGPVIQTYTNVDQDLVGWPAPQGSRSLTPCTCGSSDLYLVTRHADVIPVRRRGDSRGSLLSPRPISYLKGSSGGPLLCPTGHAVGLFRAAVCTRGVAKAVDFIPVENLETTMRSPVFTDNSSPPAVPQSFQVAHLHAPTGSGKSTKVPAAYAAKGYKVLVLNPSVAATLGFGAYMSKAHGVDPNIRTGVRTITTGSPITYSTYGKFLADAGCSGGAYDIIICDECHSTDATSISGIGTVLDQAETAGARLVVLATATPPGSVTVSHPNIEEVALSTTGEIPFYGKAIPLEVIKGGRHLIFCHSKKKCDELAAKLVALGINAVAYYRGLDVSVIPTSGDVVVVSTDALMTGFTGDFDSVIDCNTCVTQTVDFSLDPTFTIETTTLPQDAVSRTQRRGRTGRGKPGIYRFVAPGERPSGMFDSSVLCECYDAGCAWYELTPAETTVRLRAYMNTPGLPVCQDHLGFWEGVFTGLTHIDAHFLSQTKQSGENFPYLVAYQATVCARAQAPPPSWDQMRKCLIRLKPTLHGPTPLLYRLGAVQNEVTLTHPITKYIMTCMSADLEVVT

SMILES: CC[C@@H]1C[C@@]12NC(=O)[C@@H]1C[C@H](CN1C(=O)[C@@H](NC(=O)OC(C)(C)C)C(C)(C)C)Oc1nc3ccccc3n1CCC/C=C\CCC1(CC1)S(=O)(=O)NC2=O [Compound 5]
- IC50 [1]: < 0.1 µM
- EC50 [2]: > 1 µM

SMILES: CC[C@@H]1C[C@@]12NC(=O)[C@@H]1C[C@H](CN1C(=O)[C@@H](NC(=O)OC(C)(C)C)C(C)(C)C)Oc1nc3ccccc3n1C/C=C\CCCC1(CC1)S(=O)(=O)NC2=O [Compound 1]
- IC50 [1]: < 0.1 µM
- EC50 [2]: > 1 µM

SMILES: CC[C@@H]1C[C@@]12NC(=O)[C@@H]1C[C@H](CN1C(=O)[C@@H](NC(=O)OC(C)(C)C)C(C)(C)C)Oc1nc3ccccc3n1CCCCCCCC1(CC1)S(=O)(=O)NC2=O [Compound 6]
- IC50 [1]: 0.1 to 1 µM
- EC50 [2]: > 1 µM
